Reference: article PMC3496398 (Molecular pharmaceutics, 2010)
Entries after “also recorded” stand apart in the source; their conditions may differ.

Experiments:
Caco-2 cell monolayers = test: Caco-2 cell monolayer transport assay; type: in vitro ADME; conditions: apical pH 6.5 to basolateral pH 7.4, 0 mM HNAP
rat jejunum = test: Rat jejunal single-pass perfusion assay; type: in vivo; conditions: for rat jejunal Peff in the absence of HNAP: drug perfused alone, 0 mM HNAP
Octanol-buffer = conditions: Log PAB versus cLog P of free drug
[1] = in humans; cited from earlier work
[2] = rat, in vivo; cited from earlier work
[3] = system: influenza virus neuraminidase; conditions: influenza virus neuraminidase inhibitor; cited from earlier work

Structure (SMILES) | Caco-2 Papp in the absence of HNAP (Caco-2 cell monolayers) | rat jejunal Peff in the absence of HNAP (rat jejunum) | increase of log P by ion-pairing with HNAP compared to the free drug (Octanol-buffer) [units] | further results
CCOC(=O)C1=C[C@@H](OC(CC)CC)[C@H](NC(C)=O)[C@@H](NC(=N)N)C1 [GO, (3R,4R,5S)-ethyl-4-acetamido-5-guanidino-3-(pentan-3-yloxy)cyclohex-1-enecarboxylate] | no detectable transport | No effective permeability; also recorded: Essentially zero | 3.7 | change of rat jejunal Peff on co-perfusion with HNAP (rat jejunum; co-perfusion with 12 mM HNAP versus drug alone): failed to increase; also recorded: no significant increase
CCOC(=O)C1=C[C@@H](OC(CC)CC)[C@H](NC(C)=O)[C@@H](N)C1 [OSV, oseltamivir] | – | – | – | oral absorption [1]: 60–80%
CCCCCCCOC(=O)C1=C[C@H](NC(=N)N)[C@@H](NC(C)=O)[C@H]([C@H](O)[C@H](O)CO)O1 [ZHE, 5-Acetamido-2,6-anhydro-4-(guanidino)-3,4,5-trideoxy-D-glycero-D-galcto-non-2-enonic acid heptyl ester] | no detectable transport | essentially zero | 1.2 | rat jejunal Peff at 4 mM HNAP (rat jejunum; 4 mM HNAP): 21 ×10⁻⁶ cm/s; rat jejunal Peff at 10 mM HNAP (rat jejunum; 10 mM HNAP): 40 ×10⁻⁶ cm/s
CC(=O)N[C@H]1[C@H]([C@H](O)[C@H](O)CO)OC(C(=O)O)=C[C@@H]1N=C(N)N [ZNV, Zanamivir] | – | – | – | percent of oral dose absorbed (%F) [2]: 4%
CCC(CC)O[C@@H]1C=C(C(=O)O)C[C@H](NC(=N)N)[C@H]1NC(C)=O [active carboxylate of GO] | – | – | – | IC50 [3]: 0.9 nM
